From US11472803B2, “7-substituted 1-aryl-naphthyridine-3-carboxylic acid amides and use thereof” (Bayer Aktiengesellschaft, priority 2016, dated 2022)

Molecular target: T1, human M2 receptor (Homo sapiens, UniProt P08172)
T1 construct: expressed in transfected cells; host or cells: CHO-DUKX (CHO-DUKX-M2-GIRK)
T1 sequence (P08172 1-466): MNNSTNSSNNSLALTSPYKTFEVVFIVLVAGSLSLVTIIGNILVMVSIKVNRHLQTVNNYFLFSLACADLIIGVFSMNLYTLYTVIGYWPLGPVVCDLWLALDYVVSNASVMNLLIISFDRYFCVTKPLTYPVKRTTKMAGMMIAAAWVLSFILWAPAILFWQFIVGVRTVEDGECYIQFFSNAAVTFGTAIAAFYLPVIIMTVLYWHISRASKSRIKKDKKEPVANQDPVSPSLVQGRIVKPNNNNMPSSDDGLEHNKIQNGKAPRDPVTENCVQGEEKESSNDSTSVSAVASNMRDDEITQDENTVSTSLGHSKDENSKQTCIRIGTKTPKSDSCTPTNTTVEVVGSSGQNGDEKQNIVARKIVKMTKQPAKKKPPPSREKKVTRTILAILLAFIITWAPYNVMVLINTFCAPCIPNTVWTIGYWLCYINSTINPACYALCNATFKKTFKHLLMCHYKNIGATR
Test: Functional M2-GIRK1/4 activation test: allosteric potency (EC50) and efficiency at EC20 acetylcholine
Format: cell-based
Details: CHO-DUKX-M2-GIRK cells; for EC50: voltage-sensitive dye, acetylcholine at EC20, in some cases mean of two or more determinations
Method in brief: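 Positive allosteric modulation measured as boosting of an EC20 acetylcholine response: hyperpolarization via GIRK1/4 in CHO-DUKX-M2-GIRK cells, monitored by membrane-potential dye fluorescence over 60 s after agonist, compound preadded. Hill-function fit gives EC50 and efficiency.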

[1] = boosting of the acetylcholine effect at EC20 acetylcholine concentration

Row | EC50 | Emax [1] | Efficiency [1] | SMILES
1 | 48 nM | 100% | – | O=C(NC(C(F)(F)F)C(F)(F)F)c1cn(-c2c(F)cc(F)cc2F)c2nc(N3CCC(CO)(CO)CC3)c(F)cc2c1=O [Example 191, 7-[4,4-bis(hydroxymethyl)piperidin-1-yl]-6-fluoro-N-(1,1,1,3,3,3-hexafluoropropan-2-yl)-4-oxo-1-(2,4,6-trifluorophenyl)-1,4-dihydro-1,8-naphthyridine-3-carboxamide]
2 | 11 nM | 100% | – | CC[C@@H](NC(=O)c1cn(-c2c(F)cc(F)cc2F)c2nc(N3C[C@H](O)[C@@H](O)C3)c(F)cc2c1=O)C(F)(F)F [Example 156, 7-[(3S,4S)-3,4-Dihydroxypyrrolidin-1-yl]-6-fluoro-4-oxo-N-[(2R)-1,1,1-trifluorobutan-2-yl]-1-(2,4,6-trifluorophenyl)-1,4-dihydro-1,8-naphthyridine-3-carboxamide]
3 | 13 nM | 83% | – | CC(NC(=O)c1cn(-c2c(F)cc(F)cc2F)c2nc(N3CCC(O)C(O)C3)c(F)cc2c1=O)C(F)(F)C(F)(F)F (stereo not drawn) [Example 181, 7-(3,4-Dihydroxypiperidin-1-yl)-6-fluoro-4-oxo-N-(3,3,4,4,4-pentafluorobutan-2-yl)-1-(2,4,6-trifluorophenyl)-1,4-dihydro-1,8-naphthyridine-3-carboxamide]
4 | 80 nM | 85% | – | O=C(NCC(F)(F)F)c1cn(-c2c(F)cc(F)cc2F)c2nc(N3C[C@@H](O)[C@H](O)C3)c(F)cc2c1=O [Example 220, 7-[(3R,4R)-3,4-dihydroxypyrrolidin-1-yl]-6-fluoro-4-oxo-N-(2,2,2-trifluoroethyl)-1-(2,4,6-trifluorophenyl)-1,4-dihydro-1,8-naphthyridine-3-carboxamide]
5 | 4 nM | 100% | – | O=C(N[C@@H](C1CC1)C(F)(F)F)c1cn(-c2c(F)cc(F)cc2Cl)c2nc(N3C[C@@H](O)[C@H](O)C3)c(F)cc2c1=O [Example 42, 1-(2-chloro-4,6-difluorophenyl)-N-[(1S)-1-cyclopropyl-2,2,2-trifluoroethyl]-7-[(3R,4R)-3,4-dihydroxypyrrolidin-1-yl]-6-fluoro-4-oxo-1,4-dihydro-1,8-naphthyridine-3-carboxamide]
6 | 2.6 nM | 100% | – | CCC(NC(=O)c1cn(-c2c(F)cc(F)cc2F)c2nc(N3C[C@@H](O)[C@H](O)C3)c(Br)cc2c1=O)C(F)(F)C(F)(F)F (mixture of isomers) [Example 157, 6-Bromo-7-[(3R,4R)-3,4-dihydroxypyrrolidin-1-yl]-4-oxo-N-[1,1,1,2,2-pentafluoropentan-3-yl]-1-(2,4,6-trifluorophenyl)-1,4-dihydro-1,8-naphthyridine-3-carboxamide]
7 | 16 nM | 96% | – | CCC(COC(F)(F)F)NC(=O)c1cn(-c2c(F)cc(F)cc2F)c2nc(N3C[C@@H](O)[C@@H](O)C3)c(F)cc2c1=O (single isomer, unassigned) [Example 96]
8 | 3.7 nM | 100% | – | CC(NC(=O)c1cn(-c2c(F)cc(F)cc2F)c2nc(N3C[C@@H](O)[C@H](O)C3)c(Br)cc2c1=O)C(F)(F)C(F)(F)F (stereo partly drawn) [Example 158, 6-Bromo-7-[(3R,4R)-3,4-dihydroxypyrrolidin-1-yl]-4-oxo-N-[3,3,4,4,4-pentafluorobutan-2-yl]-1-(2,4,6-trifluorophenyl)-1,4-dihydro-1,8-naphthyridine-3-carboxamide]
9 | 30 nM | 100% | – | O=C(NC(C(F)(F)F)C(F)(F)F)c1cn(-c2c(F)cc(F)cc2F)c2nc(N3CCC(O)(CO)CC3)c(F)cc2c1=O [Example 189, 6-Fluoro-N-(1,1,1,3,3,3-hexafluoropropan-2-yl)-7-[4-hydroxy-4-(hydroxymethyl)piperidin-1-yl]-4-oxo-1-(2,4,6-trifluorophenyl)-1,4-dihydro-1,8-naphthyridine-3-carboxamide]
10 | 12 nM | 100% | – | CC(NC(=O)c1cn(-c2c(F)cc(F)cc2F)c2nc(N3CCOCC3)c(F)cc2c1=O)C(F)(F)C(F)(F)F (racemic) [Example 146, 6-Fluoro-7-(morpholin-4-yl)-4-oxo-N-[3,3,4,4,4-pentafluorobutan-2-yl]-1-(2,4,6-trifluoro-phenyl)-1,4-dihydro-1,8-naphthyridine-3-carboxamide]
11 | 3.5 nM | 97% | – | CCC(NC(=O)c1cn(-c2c(F)cc(F)cc2F)c2nc(N3CC[C@H](O)C3)c(F)cc2c1=O)C(C)C (mixture of isomers) [Example 116, 6-Fluoro-7-[(3S)-3-hydroxypyrrolidin-1-yl]-N-[2-methylpentan-3-yl]-4-oxo-1-(2,4,6-trifluoro-phenyl)-1,4-dihydro-1,8-naphthyridine-3-carboxamide]
12 | 18 nM | 100% | – | CC(C)(NC(=O)c1cn(-c2c(F)cc(F)cc2F)c2nc(N3C[C@@H](O)[C@@H](O)C3)c(F)cc2c1=O)C(F)(F)F [Example 124, 7-[(3R,4S)-3,4-Dihydroxypyrrolidin-1-yl]-6-fluoro-4-oxo-N-(1,1,1-trifluoro-2-methylpropan-2-yl)-1-(2,4,6-trifluorophenyl)-1,4-dihydro-1,8-naphthyridine-3-carboxamide]

More lines, now with the values behind:

Row | SMILES | EC50 | Emax [1] | Efficiency [1]
13 | CC1(O)CN(c2nc3c(cc2F)c(=O)c(C(=O)NC(C2CC2)C2CC2)cn3-c2ncc(F)cc2F)C1 [Example 56, N-(Dicyclopropylmethyl)-1-(3,5-difluoropyridin-2-yl)-6-fluoro-7-(3-hydroxy-3-methylazetidin-1-yl)-4-oxo-1,4-dihydro-1,8-naphthyridine-3-carboxamide] | 35 nM | 100% | –
14 | CC(C)(C)C(NC(=O)c1cn(-c2c(F)cc(F)cc2F)c2nc(N3CC4(COC4)C3)c(F)cc2c1=O)C(F)(F)C(F)(F)F (single isomer, unassigned) [Example 215, 6-Fluoro-7-(2-oxa-6-azaspiro[3.3]hept-6-yl)-4-oxo-N-[1,1,1,2,2-pentafluoro-4,4-dimethylpentan-3-yl]-1-(2,4,6-trifluorophenyl)-1,4-dihydro-1,8-naphthyridine-3-carboxamide] | 8.6 nM | – | 100%
15 | CC(C)(NC(=O)c1cn(-c2c(F)cc(F)cc2F)c2nc(N3CC4(COC4)C3)c(F)cc2c1=O)C(F)(F)C(F)(F)F (racemic) [Example 163, 6-Fluoro-7-(2-oxa-6-azaspiro[3.3]hept-6-yl)-4-oxo-N-(3,3,4,4,4-pentafluoro-2-methylbutan-2-yl)-1-(2,4,6-trifluorophenyl)-1,4-dihydro-1,8-naphthyridine-3-carboxamide] | 25 nM | 93% | –
16 | CC(NC(=O)c1cn(-c2ncc(F)cc2F)c2nc(N3CC[C@H](O)C3)c(F)cc2c1=O)C(F)(F)C(F)(F)F (mixture of isomers) [Example 127, 1-(3,5-Difluoropyridin-2-yl)-6-fluoro-7-[(3S)-3-hydroxypyrrolidin-1-yl]-4-oxo-N-[3,3,4,4,4-pentafluorobutan-2-yl]-1,4-dihydro-1,8-naphthyridine-3-carboxamide] | 13 nM | 92% | –
17 | C[C@H](O)CN(C)c1nc2c(cc1F)c(=O)c(C(=O)N[C@@H](C1CC1)C(F)(F)F)cn2-c1c(F)cc(F)cc1Cl [Example 72, 1-(2-Chloro-4,6-difluorophenyl)-N-[(1S)-1-cyclopropyl-2,2,2-trifluoroethyl]-6-fluoro-7-{[(2S)-2-hydroxypropyl](methyl)amino}-4-oxo-1,4-dihydro-1,8-naphthyridine-3-carboxamide] | 11 nM | 89% | –
18 | O=C(N[C@@H](C1CC1)C(F)(F)F)c1cn(-c2c(F)cc(F)cc2F)c2nc(N3CCCC[C@H]3CO)c(F)cc2c1=O [Example 58, N-[(1S)-1-Cyclopropyl-2,2,2-trifluoroethyl]-6-fluoro-7-[(2S)-2-(hydroxymethyl)piperidin-1-yl]-4-oxo-1-(2,4,6-trifluorophenyl)-1,4-dihydro-1,8-naphthyridine-3-carboxamide] | 104 nM | 90% | –
19 | CC(NC(=O)c1cn(-c2c(F)cc(F)cc2F)c2nc(N3CCC4(C3)NC(=O)NC4=O)c(F)cc2c1=O)C(F)(F)C(F)(F)F (stereo not drawn) [Example 235, 7-(2,4-Dioxo-1,3,7-triazaspiro[4.4]non-7-yl)-6-fluoro-4-oxo-N-[3,3,4,4,4-pentafluorobutan-2-yl]-1-(2,4,6-trifluorophenyl)-1,4-dihydro-1,8-naphthyridine-3-carboxamide] | 4 nM | 92% | –
20 | C[C@H](O)CN(C)c1nc2c(cc1F)c(=O)c(C(=O)N[C@@H](C1CC1)C(F)(F)F)cn2-c1c(F)cc(F)cc1F [Example 64, N-[(1S)-1-Cyclopropyl-2,2,2-trifluoroethyl]-6-fluoro-7-{[(2S)-2-hydroxypropyl](methyl)amino}-4-oxo-1-(2,4,6-trifluorophenyl)-1,4-dihydro-1,8-naphthyridine-3-carboxamide] | 12 nM | 96% | –
21 | O=C(NC(C(F)(F)F)C(F)(F)F)c1cn(-c2ncc(F)cc2F)c2nc(N3CCC(O)(CO)CC3)c(F)cc2c1=O [Example 198, 1-(3,5-Difluoropyridin-2-yl)-6-fluoro-N-(1,1,1,3,3,3-hexafluoropropan-2-yl)-7-[4-hydroxy-4-(hydroxymethyl)piperidin-1-yl]-4-oxo-1,4-dihydro-1,8-naphthyridine-3-carboxamide] | 33 nM | 100% | –
